# Values joined by “and” are separate entries in the source; they are usually repeats but may differ in a detail not shown here. Identical values can stand only once.
# Tests used:
# Experiment in all cases: radiometric filter-binding kinase assay, Kinase HotSpot
# Conditions in all cases: compound 0.5 µM; ATP 10 µM
# MAP4K5 (human) = MAP4K5 (human) (UniProt Q9Y4K4)
# NEK4 (human) = NEK4 (human) (UniProt P51957)
# TGFBR1 (human) = TGFBR1 (human) (UniProt P36897)
# ABL2 (human) = ABL2 (human) (UniProt P42684)
# AKT3 (human) = AKT3 (human) (UniProt Q9Y243)
# AKT3 (human), sequence (Q9Y243 whole entry, looked up): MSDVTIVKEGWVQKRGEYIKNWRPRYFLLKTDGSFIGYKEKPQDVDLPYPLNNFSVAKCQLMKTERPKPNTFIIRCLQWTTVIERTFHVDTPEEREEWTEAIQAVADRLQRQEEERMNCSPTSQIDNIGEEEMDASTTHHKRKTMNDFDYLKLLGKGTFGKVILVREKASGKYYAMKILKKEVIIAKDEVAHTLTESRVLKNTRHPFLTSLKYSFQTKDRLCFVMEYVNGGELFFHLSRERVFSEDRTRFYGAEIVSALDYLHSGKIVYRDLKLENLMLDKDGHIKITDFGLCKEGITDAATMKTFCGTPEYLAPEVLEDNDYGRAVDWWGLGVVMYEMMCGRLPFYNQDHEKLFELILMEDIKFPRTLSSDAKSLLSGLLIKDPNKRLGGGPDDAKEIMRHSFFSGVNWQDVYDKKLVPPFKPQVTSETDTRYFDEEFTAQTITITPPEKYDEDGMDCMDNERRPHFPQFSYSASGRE
# CLK2 (human) = CLK2 (human) (UniProt P49760)
# CLK2 (human), sequence (P49760 whole entry, looked up): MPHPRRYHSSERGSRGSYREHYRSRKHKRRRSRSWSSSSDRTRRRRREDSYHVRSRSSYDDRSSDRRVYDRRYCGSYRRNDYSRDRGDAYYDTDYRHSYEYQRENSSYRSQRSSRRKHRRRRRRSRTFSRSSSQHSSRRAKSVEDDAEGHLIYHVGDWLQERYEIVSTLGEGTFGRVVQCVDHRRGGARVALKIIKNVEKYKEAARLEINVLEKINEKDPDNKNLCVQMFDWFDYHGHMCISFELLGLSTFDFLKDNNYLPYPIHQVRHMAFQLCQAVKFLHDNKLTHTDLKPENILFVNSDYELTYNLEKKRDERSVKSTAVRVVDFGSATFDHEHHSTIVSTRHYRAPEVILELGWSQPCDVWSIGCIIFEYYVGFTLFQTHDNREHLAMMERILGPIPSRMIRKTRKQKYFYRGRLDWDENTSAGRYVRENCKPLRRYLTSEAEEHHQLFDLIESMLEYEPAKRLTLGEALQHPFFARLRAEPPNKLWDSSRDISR
# EGFR (human) = EGFR (human) (UniProt P00533)
# MARK1 (human) = MARK1 (human) (UniProt Q9P0L2)
# ADRBK1 (human) = ADRBK1 (human) (UniProt P25098)
# CAMK2B (human) = CAMK2B (human) (UniProt Q13554)
# CSNK1G3 (human) = CSNK1G3 (human) (UniProt Q9Y6M4)
# CSNK1G3 (human), sequence (Q9Y6M4 whole entry, looked up): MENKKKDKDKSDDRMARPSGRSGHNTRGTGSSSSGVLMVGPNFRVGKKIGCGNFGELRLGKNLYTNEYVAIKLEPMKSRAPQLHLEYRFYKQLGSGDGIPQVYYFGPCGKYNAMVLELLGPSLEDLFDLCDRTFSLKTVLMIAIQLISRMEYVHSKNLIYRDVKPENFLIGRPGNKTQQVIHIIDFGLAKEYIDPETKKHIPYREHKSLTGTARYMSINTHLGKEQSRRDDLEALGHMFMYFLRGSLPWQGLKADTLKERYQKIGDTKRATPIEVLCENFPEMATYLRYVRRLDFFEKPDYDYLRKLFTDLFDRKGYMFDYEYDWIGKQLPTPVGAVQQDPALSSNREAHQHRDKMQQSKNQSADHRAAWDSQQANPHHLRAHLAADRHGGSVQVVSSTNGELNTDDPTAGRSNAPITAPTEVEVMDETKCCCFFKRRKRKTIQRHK
# TSSK2 (human) = TSSK2 (human) (UniProt Q96PF2)
# CAMK1 (human) = CAMK1 (human) (UniProt Q14012)
# ACVR1 (human) = ACVR1 (human) (UniProt Q04771)
# PRKCE (human) = PRKCE (human) (UniProt Q02156)
# STK11 (human) = STK11 (human) (UniProt Q15831)
# GRK7 (human) = GRK7 (human) (UniProt Q8WTQ7)
# STK39 (human) = STK39 (human) (UniProt Q9UEW8)
# PTK2 (human) = PTK2 (human) (UniProt Q05397)
# CDK9 CCNT1 (human) = CDK9 CCNT1 (human) (UniProt P50750+O60563)
# MST1R (human) = MST1R (human) (UniProt Q04912)
# MST1R (human), sequence (Q04912 whole entry, looked up): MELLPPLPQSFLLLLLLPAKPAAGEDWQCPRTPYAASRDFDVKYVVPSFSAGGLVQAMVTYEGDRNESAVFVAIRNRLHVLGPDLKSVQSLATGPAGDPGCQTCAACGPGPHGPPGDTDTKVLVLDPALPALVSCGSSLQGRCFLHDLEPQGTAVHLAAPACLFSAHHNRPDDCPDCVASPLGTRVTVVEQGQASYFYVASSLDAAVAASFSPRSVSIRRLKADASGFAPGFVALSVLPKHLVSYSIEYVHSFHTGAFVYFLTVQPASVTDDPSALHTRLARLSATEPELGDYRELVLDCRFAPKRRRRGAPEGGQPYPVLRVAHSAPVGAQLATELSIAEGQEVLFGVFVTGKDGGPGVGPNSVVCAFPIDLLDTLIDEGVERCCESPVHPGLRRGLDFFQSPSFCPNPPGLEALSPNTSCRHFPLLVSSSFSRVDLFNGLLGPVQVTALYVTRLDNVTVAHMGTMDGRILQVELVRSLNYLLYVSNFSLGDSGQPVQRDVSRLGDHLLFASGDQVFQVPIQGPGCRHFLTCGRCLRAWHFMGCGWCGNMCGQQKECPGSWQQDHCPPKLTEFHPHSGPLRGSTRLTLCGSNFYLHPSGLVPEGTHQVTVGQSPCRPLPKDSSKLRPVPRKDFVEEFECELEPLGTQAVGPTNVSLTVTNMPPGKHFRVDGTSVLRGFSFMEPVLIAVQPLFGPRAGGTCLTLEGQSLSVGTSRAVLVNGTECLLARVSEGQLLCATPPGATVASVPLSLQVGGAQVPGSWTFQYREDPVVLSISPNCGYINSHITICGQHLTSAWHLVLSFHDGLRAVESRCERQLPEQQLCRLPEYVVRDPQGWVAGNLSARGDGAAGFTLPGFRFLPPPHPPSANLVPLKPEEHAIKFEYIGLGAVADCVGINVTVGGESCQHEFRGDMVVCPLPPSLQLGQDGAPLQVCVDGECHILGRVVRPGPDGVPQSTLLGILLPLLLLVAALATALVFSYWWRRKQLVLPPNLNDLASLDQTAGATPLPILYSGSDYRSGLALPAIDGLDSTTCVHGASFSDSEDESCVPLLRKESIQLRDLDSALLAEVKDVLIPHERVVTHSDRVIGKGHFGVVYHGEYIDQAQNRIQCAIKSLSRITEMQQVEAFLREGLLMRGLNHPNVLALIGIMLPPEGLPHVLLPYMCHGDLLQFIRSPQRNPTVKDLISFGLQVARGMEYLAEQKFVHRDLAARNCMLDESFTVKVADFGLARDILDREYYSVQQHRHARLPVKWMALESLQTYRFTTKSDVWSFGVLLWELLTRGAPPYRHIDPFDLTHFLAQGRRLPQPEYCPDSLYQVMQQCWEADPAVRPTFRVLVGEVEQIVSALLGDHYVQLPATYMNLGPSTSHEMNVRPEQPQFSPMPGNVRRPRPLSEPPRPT
# GRK6 (human) = GRK6 (human) (UniProt P43250)
# LIMK1 (human) = LIMK1 (human) (UniProt P53667)
# STK10 (human) = STK10 (human) (UniProt O94804)
# PRKD1 (human) = PRKD1 (human) (UniProt Q15139)
# PRKD1 (human), sequence (Q15139 whole entry, looked up): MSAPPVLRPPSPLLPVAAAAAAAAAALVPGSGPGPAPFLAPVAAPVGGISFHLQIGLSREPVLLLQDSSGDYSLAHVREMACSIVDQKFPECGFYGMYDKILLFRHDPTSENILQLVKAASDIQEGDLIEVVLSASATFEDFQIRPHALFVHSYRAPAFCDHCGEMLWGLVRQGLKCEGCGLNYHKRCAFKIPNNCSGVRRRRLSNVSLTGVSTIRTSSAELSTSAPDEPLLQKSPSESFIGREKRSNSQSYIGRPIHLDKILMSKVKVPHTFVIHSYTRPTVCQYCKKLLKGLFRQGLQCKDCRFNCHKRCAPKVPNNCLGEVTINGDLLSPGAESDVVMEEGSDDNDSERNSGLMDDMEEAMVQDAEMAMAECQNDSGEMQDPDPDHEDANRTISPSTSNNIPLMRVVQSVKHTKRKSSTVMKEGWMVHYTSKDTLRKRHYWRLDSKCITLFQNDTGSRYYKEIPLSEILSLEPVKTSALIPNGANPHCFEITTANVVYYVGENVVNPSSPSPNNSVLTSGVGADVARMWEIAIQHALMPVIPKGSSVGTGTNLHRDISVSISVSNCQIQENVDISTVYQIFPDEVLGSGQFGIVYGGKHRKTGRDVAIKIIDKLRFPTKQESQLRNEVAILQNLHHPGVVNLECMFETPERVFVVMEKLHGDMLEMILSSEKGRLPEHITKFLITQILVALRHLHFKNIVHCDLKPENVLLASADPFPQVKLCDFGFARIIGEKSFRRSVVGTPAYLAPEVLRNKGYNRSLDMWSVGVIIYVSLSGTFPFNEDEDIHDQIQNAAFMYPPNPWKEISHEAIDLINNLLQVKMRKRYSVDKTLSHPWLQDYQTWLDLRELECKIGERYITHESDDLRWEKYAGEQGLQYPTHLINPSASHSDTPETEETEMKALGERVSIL
# MAP3K14 (human) = MAP3K14 (human) (UniProt Q99558)
# MAP3K14 (human), sequence (Q99558 whole entry, looked up): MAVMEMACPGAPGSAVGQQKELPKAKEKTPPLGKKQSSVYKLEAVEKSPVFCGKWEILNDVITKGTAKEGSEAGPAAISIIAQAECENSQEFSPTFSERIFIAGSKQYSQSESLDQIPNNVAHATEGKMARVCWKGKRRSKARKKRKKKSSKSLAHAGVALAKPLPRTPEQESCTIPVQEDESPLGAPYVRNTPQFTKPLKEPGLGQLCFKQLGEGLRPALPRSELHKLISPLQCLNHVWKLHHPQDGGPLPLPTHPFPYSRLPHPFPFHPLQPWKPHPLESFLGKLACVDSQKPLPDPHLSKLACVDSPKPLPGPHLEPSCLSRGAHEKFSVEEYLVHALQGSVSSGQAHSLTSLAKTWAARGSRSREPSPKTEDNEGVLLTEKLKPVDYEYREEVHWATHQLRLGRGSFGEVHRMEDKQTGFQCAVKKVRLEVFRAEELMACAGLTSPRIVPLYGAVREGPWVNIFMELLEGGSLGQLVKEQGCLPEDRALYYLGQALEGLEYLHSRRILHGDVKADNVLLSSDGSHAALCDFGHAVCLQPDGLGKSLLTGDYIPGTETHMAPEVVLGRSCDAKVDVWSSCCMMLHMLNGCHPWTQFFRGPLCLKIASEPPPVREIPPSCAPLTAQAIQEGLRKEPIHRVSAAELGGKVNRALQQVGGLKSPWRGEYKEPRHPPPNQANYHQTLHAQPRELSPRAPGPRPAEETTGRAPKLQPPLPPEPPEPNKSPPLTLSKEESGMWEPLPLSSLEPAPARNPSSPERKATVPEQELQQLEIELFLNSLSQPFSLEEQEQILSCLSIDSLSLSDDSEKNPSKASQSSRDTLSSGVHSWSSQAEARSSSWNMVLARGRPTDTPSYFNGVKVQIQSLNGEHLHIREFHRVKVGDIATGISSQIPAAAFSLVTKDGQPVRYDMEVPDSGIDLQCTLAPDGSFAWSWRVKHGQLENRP
# NTRK3 (human) = NTRK3 (human) (UniProt Q16288)
# HIPK4 (human) = HIPK4 (human) (UniProt Q8NE63)
# PHKG1 (human) = PHKG1 (human) (UniProt Q16816)
# PHKG1 (human), sequence (Q16816 whole entry, looked up): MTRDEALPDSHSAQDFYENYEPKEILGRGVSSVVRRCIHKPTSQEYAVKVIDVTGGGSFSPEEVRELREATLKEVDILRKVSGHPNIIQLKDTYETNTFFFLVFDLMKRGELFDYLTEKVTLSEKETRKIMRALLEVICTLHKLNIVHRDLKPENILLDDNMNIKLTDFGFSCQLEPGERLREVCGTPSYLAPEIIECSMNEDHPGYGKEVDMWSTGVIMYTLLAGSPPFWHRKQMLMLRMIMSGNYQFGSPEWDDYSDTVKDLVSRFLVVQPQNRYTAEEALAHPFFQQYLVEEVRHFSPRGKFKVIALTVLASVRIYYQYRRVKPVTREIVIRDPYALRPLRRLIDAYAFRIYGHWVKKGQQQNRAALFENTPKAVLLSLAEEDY
# CDK2 CCNE1 (human) = CDK2 CCNE1 (human) (UniProt P24941+P24864)
# NEK7 (human) = NEK7 (human) (UniProt Q8TDX7)
# CAMKK2 (human) = CAMKK2 (human) (UniProt Q96RR4)
# IKBKE (human) = IKBKE (human) (UniProt Q14164)
# MET (human) = MET (human) (UniProt P08581)
# CDK4 CCND3 (human) = CDK4 CCND3 (human) (UniProt P30281+P11802)
# EPHA7 (human) = EPHA7 (human) (UniProt Q15375)
# MLTK (human) = MLTK (human) (UniProt Q9NYL2)
# CDK1 CCNA2 (human) = CDK1 CCNA2 (human) (UniProt P06493+P20248)
# CDK4 CCND1 (human) = CDK4 CCND1 (human) (UniProt P24385+P11802)
# CAMK1D (human) = CAMK1D (human) (UniProt Q8IU85)
# PRKG1 (human) = PRKG1 (human) (UniProt Q13976)
# PRKCB2 (human) = PRKCB2 (human) (UniProt P05771)
smiles,measurement,setting,value
O=C1NC(=O)C(c2cn(CCCO)c3ncccc23)=C1c1cnccn1,residual activity,MAP4K5 (human),37.5%
same,residual activity,NEK4 (human),85.1%
same,residual activity,TGFBR1 (human),98.5%
same,residual activity,ABL2 (human),83.7%
same,residual activity,AKT3 (human),101%
same,residual activity,CLK2 (human),98.9%
same,residual activity,EGFR (human),95.9%
same,residual activity,MARK1 (human),95%
same,residual activity,ADRBK1 (human),114%
same,residual activity,CAMK2B (human),97.6%
same,residual activity,CSNK1G3 (human),107%
same,residual activity,TSSK2 (human),119%
same,residual activity,CAMK1 (human),101%
same,residual activity,ACVR1 (human),97%
same,residual activity,PRKCE (human),102%
same,residual activity,STK11 (human),83.1%
same,residual activity,GRK7 (human),118%
same,residual activity,STK39 (human),111%
same,residual activity,PTK2 (human),101%
same,residual activity,CDK9 CCNT1 (human),88.3%
same,residual activity,MST1R (human),96.1%
same,residual activity,GRK6 (human),102%
same,residual activity,LIMK1 (human),96.4%
same,residual activity,STK10 (human),104%
same,residual activity,PRKD1 (human),107%
same,residual activity,MAP3K14 (human),78.1%
same,residual activity,NTRK3 (human),79.7%
same,residual activity,HIPK4 (human),104%
same,residual activity,PHKG1 (human),87.2%
same,residual activity,CDK2 CCNE1 (human),85.1%
same,residual activity,NEK7 (human),95.4%
same,residual activity,CAMKK2 (human),115%
same,residual activity,IKBKE (human),90%
same,residual activity,MET (human),121%
same,residual activity,CDK4 CCND3 (human),95.9%
same,residual activity,EPHA7 (human),105%
same,residual activity,MLTK (human),96.4%
same,residual activity,CDK1 CCNA2 (human),91.8%
same,residual activity,CDK4 CCND1 (human),89.5%
same,residual activity,CAMK1D (human),95.1%
COc1ccc(CNC(=O)Nc2ncc([N+](=O)[O-])s2)cc1,residual activity,MAP4K5 (human),93.9%
same,residual activity,NEK4 (human),91%
same,residual activity,TGFBR1 (human),95.8%
same,residual activity,ABL2 (human),97.9%
same,residual activity,PRKG1 (human),95.9% and 97.3%
same,residual activity,AKT3 (human),95.9%
same,residual activity,CLK2 (human),97.4%
same,residual activity,MARK1 (human),106%
same,residual activity,ADRBK1 (human),96.4%
same,residual activity,CAMK2B (human),103%
same,residual activity,CSNK1G3 (human),90.4%
same,residual activity,TSSK2 (human),105%
same,residual activity,CAMK1 (human),101%
same,residual activity,ACVR1 (human),99.5%
same,residual activity,PRKCE (human),92.4%
same,residual activity,STK11 (human),100%
same,residual activity,GRK7 (human),103%
same,residual activity,STK39 (human),96.4%
same,residual activity,PTK2 (human),101%
same,residual activity,CDK9 CCNT1 (human),88.1%
same,residual activity,MST1R (human),98.4%
same,residual activity,GRK6 (human),99.6%
same,residual activity,LIMK1 (human),96%
same,residual activity,STK10 (human),94.3%
same,residual activity,PRKD1 (human),104%
same,residual activity,MAP3K14 (human),84.2%
same,residual activity,NTRK3 (human),98.7%
same,residual activity,HIPK4 (human),103%
same,residual activity,PHKG1 (human),101%
same,residual activity,CDK2 CCNE1 (human),97.6%
same,residual activity,NEK7 (human),99.4%
same,residual activity,CAMKK2 (human),92.7%
same,residual activity,IKBKE (human),99.8%
same,residual activity,MET (human),85.5%
same,residual activity,CDK4 CCND3 (human),94.4%
same,residual activity,PRKCB2 (human),103%
same,residual activity,EPHA7 (human),96.6%
same,residual activity,MLTK (human),101%
same,residual activity,CDK1 CCNA2 (human),93.4%
same,residual activity,CDK4 CCND1 (human),97.3%
same,residual activity,CAMK1D (human),112%
CN([C@@H](Cc1ccc(OS(=O)(=O)c2cccc3cnccc23)cc1)C(=O)N1CCN(c2ccccc2)CC1)S(=O)(=O)c1cccc2cnccc12,residual activity,MAP4K5 (human),96.3%
same,residual activity,NEK4 (human),99.5%
same,residual activity,ABL2 (human),98.9%
same,residual activity,PRKG1 (human),84.2% and 93.6%
same,residual activity,AKT3 (human),104%
same,residual activity,CLK2 (human),93%
same,residual activity,EGFR (human),89.4%
same,residual activity,MARK1 (human),96.7%
same,residual activity,ADRBK1 (human),97.5%
same,residual activity,CAMK2B (human),97.8%
same,residual activity,CSNK1G3 (human),104%
same,residual activity,TSSK2 (human),105%
same,residual activity,CAMK1 (human),105%
same,residual activity,ACVR1 (human),95%
same,residual activity,PRKCE (human),99.5%
same,residual activity,STK11 (human),99%
same,residual activity,GRK7 (human),105%
same,residual activity,STK39 (human),93.5%
same,residual activity,PTK2 (human),104%
same,residual activity,CDK9 CCNT1 (human),100%
same,residual activity,MST1R (human),94.4%
same,residual activity,GRK6 (human),101%
same,residual activity,LIMK1 (human),104%
same,residual activity,STK10 (human),96.3%
same,residual activity,PRKD1 (human),101%
same,residual activity,MAP3K14 (human),90.7%
same,residual activity,NTRK3 (human),97.5%
same,residual activity,HIPK4 (human),105%
same,residual activity,PHKG1 (human),93.4%
same,residual activity,CDK2 CCNE1 (human),94.9%
same,residual activity,NEK7 (human),93.3%
same,residual activity,CAMKK2 (human),84.2%
same,residual activity,IKBKE (human),92.6%
same,residual activity,MET (human),114%
same,residual activity,CDK4 CCND3 (human),97.8%
same,residual activity,EPHA7 (human),102%
same,residual activity,MLTK (human),103%
same,residual activity,CDK4 CCND1 (human),95.3%
same,residual activity,CAMK1D (human),101%

# Reference: the kinase profiling compilation of Christmann-Franck et al. (2016)
